Test results reported in PubChem BioAssay (NCI).
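Five concentrations, 48 hours, 96-well plates. Definition used: TGI = concentration required for complete inhibition of growth.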

Assays:
Experiment in all cases: NCI-60 cell line screen, 48 h
[1] = test system: 786-0 renal
[2] = test system: A549 NSCLC
[3] = test system: ACHN renal
[4] = test system: COLO 205 colon
[5] = test system: DU-145 prostate
[6] = test system: HCT-116 colon
[7] = test system: HCT-15 colon
[8] = test system: HT29 colon
[9] = test system: IGROV1 ovarian
[10] = test system: K-562 leukemia
[11] = test system: LOX IMVI melanoma
[12] = test system: MCF7 breast
[13] = test system: MDA-N
[14] = test system: NCI-H226 lung
[15] = test system: NCI-H23 lung
[16] = test system: NCI-H460 lung
[17] = test system: OVCAR-3 ovarian
[18] = test system: SF-539 CNS
[19] = test system: SNB-19 CNS
[20] = test system: NCI-H522 lung

Structure (SMILES)	TGI [1] [µM]	TGI [2] [µM]	TGI [3] [µM]	TGI [4] [µM]	TGI [5] [µM]	TGI [6] [µM]	TGI [7] [µM]	TGI [8] [µM]	TGI [9] [µM]	TGI [10] [µM]	TGI [11] [µM]	TGI [12] [µM]	TGI [13] [µM]	TGI [14] [µM]	TGI [15] [µM]	TGI [16] [µM]	TGI [17] [µM]	TGI [18] [µM]	TGI [19] [µM]	TGI [20] [µM]
C[n+]1c2ccccc2c(C(=O)Nc2ccc(S(=O)(=O)Nc3ccnn3-c3ccccc3)cc2)c2ccccc21	> 100	> 100	> 100	> 100	> 100	> 100	> 100	> 100	> 100	> 100	> 100	> 100	> 100	> 100	> 100	> 100	> 100	> 100	> 100	
O=[N+]([O-])c1ccc(-c2csc3nc(-c4ccccc4)nn23)cc1	> 100	> 100	> 100	> 100	> 100	> 100	> 100	> 100	> 100	> 100	> 100	> 100	> 100	> 100	> 100		> 100		> 100	> 100
CC12CCC(CC1=O)C2(C)CCC(N)=O (stereo not drawn)	> 100	> 100	> 100	> 100	> 100	> 100	> 100	> 100	> 100	> 100		> 100	> 100	> 100	> 100		> 100		> 100	> 100
O=C(/C=C/c1csc(-c2ccccc2)n1)NCc1ccc(C(=O)NCCc2ccccc2)cc1	32.7	> 100	> 100	> 100	> 100	> 100	> 100	30.4	> 100	> 100	> 100	> 100	> 100	90.2	> 100	> 100	> 100		49.1	> 100
COC12OC3(C4OC41)C(C(=O)O[C@H]3CO[Si](C)(C)C(C)(C)C)C2C(=O)Oc1ccccc1 (stereo partly drawn)	> 100	> 100	> 100	> 100	> 100	> 100	> 100	> 100	> 100	> 100	> 100	> 100	> 100	> 100	> 100	> 100	> 100		> 100	> 100
CCOC(=O)C1(C(=O)OCC)Nc2cccnc2N(C)N1	36	> 100		24.2	42.5	73.9	36.2	32.2	42.1	49.9	52.6	34.8	35.4	35.3	42.1	> 100	41.5	30.7	> 100	
CC#CC#C/C=C1/O[C@]2(CCC(OC(C)=O)CO2)[C@@H]2O[C@H]12 (stereo partly drawn)	46.9	> 100	60.8	32.4	> 100	40.6	42.8	96.1	> 100	> 100	48.2	> 100	> 100	47.4	44.7	41.8	> 100		> 100	35.6
CCOC(=O)C1=[N+]([O-])OC2=C(O)CCCC21 (stereo not drawn)	> 100	> 100	> 100	> 100	> 100	> 100	> 100	> 100	> 100	> 100	> 100	> 100	> 100	> 100	> 100	> 100	> 100		> 100	> 100
N=c1oc2c(Cl)cc(Cl)cc2cc1C(=O)Nc1cccc2ccccc12	12.8	> 100	11.2	> 32.7	> 100	40.6	> 100	> 100	40.6	> 53.3	> 24	> 100	> 100	66.2	> 52.6	62.1	> 40		> 78.2	> 100
NC(=O)c1cc2cc(Cl)cc(Cl)c2oc1=Nc1ccc(F)cc1	25.3	70.1	41.8	40.6	41.8	38.3	42.3	> 100	87.3	27.5	> 100	45.1	66.5	43.5	27.8	35.5	52.9		42.3	38.1
CC(=O)OCC1OC(SC2=N/C(=C\c3cc4c(=O)c5ccccc5sc4s3)C(=O)N2c2ccccc2)C(OC(C)=O)C(OC(C)=O)C1OC(C)=O (stereo not drawn)	> 100		> 100	> 100	> 100	> 100	> 100	> 100	> 100	> 100	> 100	> 100	> 100	> 100	> 100	> 100	> 100		> 100	> 100
CCOP(=O)(OCC)C1CC(O)C(=O)N1 (stereo not drawn)	> 100	> 100	> 100	> 100	> 100	> 100	> 100	> 100	> 100	> 100	> 100	> 100	> 100	> 100	> 100		> 100		> 100	
C=CCOc1ccc(/C(N=Nc2ccc(Cl)cc2)=N/NC(=O)c2ccccc2)cc1OC	> 100	> 100	> 100	> 100	> 100	> 100	> 100	> 100	> 100		> 100	> 100	> 100	> 100	> 100	> 100	> 100		> 100	> 100
CCOC(=O)c1c(N2CCCC2)nsc1Nc1ccc(F)cc1	> 100	> 100	> 100	> 100	> 100	> 100	> 100	68	> 100	> 100	> 100		> 100	> 100	> 100	> 100	> 100	> 100	> 100	> 100
O=[N+]([O-])c1ccc(-c2nnc(C34CC5CC(CC(C5)C3)C4)o2)cc1	> 100	> 100	> 100	> 100	> 100	> 100	> 100	> 100	> 100	> 100	> 100		> 100	> 100	> 100	> 100	> 100	> 100	> 100	> 100
N#CC12C(=O)N3C(=NC(c4ccccc4)NC3c3ccccc3)C1(C#N)C(c1ccccc1)NC1=C2CCC1 (stereo not drawn)	> 100	> 100	> 100	> 100	> 100	> 100	> 100	> 100	> 100	> 100	> 100	> 100	> 100	> 100	> 100	> 100	> 100		> 100	> 100
N#CCc1nc2ccccc2c(=O)[nH]1	> 100	> 100	> 100	> 100	> 100	> 100	> 100	> 100	> 100		> 100	> 100	> 100	> 100	> 100	> 100	> 100	> 100	> 100	
CCOC(=O)N(Cc1cccs1)c1cc(OC)c(OC)c(OC)c1	> 100	> 100	> 100	32.9	> 100	> 100	> 100	> 100	> 100	65.7	> 100	> 100	90.8	> 100	> 100	> 100	> 100		> 100	> 100
COc1ccc(/C=C2\C(=O)N(C3OC(COC(C)=O)C(OC(C)=O)C(OC(C)=O)C3OC(C)=O)c3ccccc3N=C2N)cc1 (stereo not drawn)	37.5	> 100	> 100	34	87.6	49.7	> 100	38	> 100	38.1	89.4	> 100	26		59.1	75.8	65.1	21.4	> 100	
NC(=O)N/N=C1\CCCCc2ccccc21	> 10	> 10	> 10	> 10	> 10	> 10	> 10	> 10		> 10		> 10	> 10	> 10	> 10	> 10	> 10		> 10	> 10
